# Test results: patent US9771345B2, “Coferons and methods of making and using them” (Cornell University, priority 2009, dated 2017)
# Where a name gives a salt, the structure may show the parent alone.
# Legend:
# [1] = Alizarin Red S displacement: equilibrium between boronic acid and diols or other ligands; assay type: physicochemical; conditions: 0.10 M phosphate buffer, pH 7.4; no Keq range given
# Source text: To assess the potential of boronic acid diol pairs as potential summa linkers within Coferons, the Alizarin Red S method was used essentially as described (Springsteen, G. and Wang, B, Tetrahedron 58: 5291-5300 (2002), which is hereby incorporated by reference in its entirety). Alizarin Red S gives a red color when free in solution, and shifts to yellow when complexed to boronic acids.
# To determine equilibria between boronic acid species and diols or other ligands, a solution containing 2.0×10^−3 M boronic acid, 1.0×10^−4 M of ARS in 0.10 M phosphate buffer, pH 7.4 was prepared. Diol or other ligands from 3×10^−2 M to 1.0×10^−4 M were serially diluted into the above boronic acid-ARS mix, and absorbance spectra were determined from 350 to 750 nm. (stock solutions were made to 100 mM in DMSO). The higher concentrations of diol would displace the boronic acid from complexation with ARS, liberating free ARS and turning the solution pink. The percent complexed and percent free ARS was determined by comparing absorbance level to fully complexed and free ARS at 440 and 550 nm. The approximate equilibrium constant Keq2 for a given boronic acid-diol complexation was estimated using the formula: Keq=[ARS−PBA]/[ARS]×[PBA] [PBA]=[ARS−PBA]/[ARS]×Keq [Sorb−PBA]=0.002−[PBA]−[ARS−PBA] [Sorb]=Total Sorb−[Sorb−PBA] Keq2=[Sorb PBA]/[Sorb]×[PBA] (where ARS=Alizarin Red S; Sorb=sorbitol; and PBA=Phenylboronic acid as an example).
# [2] = molecular target: T1, recombinant human tryptase, beta, from lung (Homo sapiens, UniProt P20231); test: Inhibition of tryptase activity by coferons (Boc-Gln-Ala-Arg-AMC fluorescence); assay type: biochemical; conditions: coferon monomer alone; 1 nM tryptase
# T1 construct: purchased Promega or Enzo Life Sciences G5631 or BML-SE418
# Description: Stock solutions of recombinant human tryptase, beta, from lung (Promega: catalog number G5631, or Enzo Life Sciences: catalog number BML-SE418) were made at 30 μM, in solution with 50 μM heparin sulfate and 500 mM NaCl. Coferon tryptase inhibitor stock solutions were made at 50 mM in DMSO. Drug plates were made at 5× the final concentration in assay buffer (50 mM HEPES, 150 mM NaCl, 100 μM EDTA, pH 7.4, 0.02% Tween-20). A final concentration of 1 nM tryptase was used. When required, drugs were diluted in assay buffer immediately before use in 10-fold serial dilutions. […] The Softmax Pro (Molecular Devices) and Graphpad prism software were used to determine Vmax, and concentration-response curve IC50s, respectively.
# [3] = LC-MS/MS determination of dimerization of summa linkers; assay type: physicochemical; conditions: for Dimer 4 level: after 115 h
# Source text: For summa linkers and coferons that form dimers that are slow to hydrolyze/equilibrate under the chromatographic conditions, evidence for dimerization or oligomerization may be generated using LC-MS/MS methods in which the monomeric and dimeric species are separated by reversed-phase liquid chromatography and identified using tandem mass spectrometric methods, typically utilizing MRM transitions to maximize sensitivity. Often this approach is capable of separating and quantifying isomeric and diastereomeric dimeric states of the summa linker and coferon assemblies.
# Typically, a solution of the following homodimeric summa linker was incubated under various conditions of pH, concentration, organic cosolvent, or protein additives, etc. and aliquots were chromatographed on a Primesep 200 (150×4.6 mm, 5μ) RP-HPLC column using a flow rate of 1.0 mL/min and a linear gradient of 0.1% aqueous TFA/acetonitrile over 25-30 minutes. Preparations containing a known amount of dimeric species (as determined by NMR for example) can be employed as a standard to allow for accurate quantitation of monomeric and dimeric states. For example, using such conditions, 4 isomeric dimers of the following racemic amino-cyclobutanone summa linker moiety (RT 7.29 min; example 47; >99.7% monomeric) were quantified under various conditions. When incubated at 0.125 mg/mL at 20° C. at pH 2.0 in 0.1% TFA, dimers-1, -2 & -3 eluting at 15, 15.5 and 16 min, respectively, increased from 0.06%, 0.06% and 0.11% at time zero to 2.35, 2.3%, and 5.2% after 169 h; dimer-4 was not observed under these conditions. […] Complete equilibrium between monomer and dimer-4 was not achieved within this timeframe, as dimer-4 was still increasing at 169 h.
# [4] = 0.125 mg/mL, 20° C., pH 2.0 in 0.1% TFA, after 169 h
# [5] = 0.125 mg/mL, 20° C., pH 2.0 in 0.1% TFA, time zero
# T1 sequence (P20231 31-275): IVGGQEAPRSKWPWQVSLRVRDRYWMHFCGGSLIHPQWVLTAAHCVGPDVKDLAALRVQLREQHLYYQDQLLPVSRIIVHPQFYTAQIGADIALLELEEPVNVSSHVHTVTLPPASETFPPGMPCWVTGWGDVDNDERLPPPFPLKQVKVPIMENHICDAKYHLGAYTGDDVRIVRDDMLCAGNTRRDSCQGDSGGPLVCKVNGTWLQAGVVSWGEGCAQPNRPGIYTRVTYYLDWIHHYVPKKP
Compound,affinity of diol or other ligand for boronic acids in aqueous solution (in words) [1],IC50 [2] [µM],other results
"CNCC(O)CO (stereo not drawn) [3-methylamino-1,2-propanediol, 3-Methylamino-1,2-propanediol]",lower affinities for boronic acids,,
"O=C(O)C(O)c1ccc(C(F)(F)F)cc1 (stereo not drawn) [4-(trifluoromethyl)mandelic acid, 4-(Trifluoromethyl)mandelic acid]",lower affinities for boronic acids,,
"O[C@@H]1CNC[C@@H]1O [(3S,4R)-pyrrolidine-3,4-diol]",lower affinities for boronic acids,,
"O=C[C@H](O)[C@@H](O)[C@H](O)[C@H](O)CO [D-(+)-glucose, D-(+)-Glucose]",lower affinities for boronic acids,,
"NCc1cccc(C2CCN(C(=O)c3cccc4cc(B(O)O)ccc34)CC2)c1 [Example 34, (5-(4-(3-(amino methyl)phenyl)piperidine-1-carbonyl)napthalen-2-yl)boronic acid]",,0.48,
"NCc1cccc(C2CCN(C(=O)c3cccc4ccc(B(O)O)cc34)CC2)c1 [Example 35, (8-(4-(3-(aminomethyl)phenyl)piperidine-1-carbonyl)naphthalen-2-yl)boronic acid]",,15,
"NCc1cccc(C2CCN(C(=O)Cc3cccc(B(O)O)c3)CC2)c1 [Example 36, (3-(2-(4-(3-(aminomethyl)phenyl)piperidin-1-yl)-2-oxoethyl)phenyl)boronic acid]",,8.15,
"NCc1cccc(C2CCN(C(=O)Cc3ccc(B(O)O)cc3)CC2)c1 [Example 37, (4-(2-(4-(3-(aminomethyl)phenyl)piperidin-1-yl)-2-oxoethyl)phenyl)boronic acid]",,1.05,
"NCc1cccc(C2CCN(C(=O)/C=C/c3ccc(O)c(O)c3)CC2)c1 [Example 39, (E)-1-(4-(3-(aminomethyl)phenyl)piperidin-1-yl)-3-(3,4-dihydroxyphenyl)prop-2-en-1-one hydrochloride]",,4.3,
"NCc1cccc(C2CCN(C(=O)c3cccc4cc(O)c(O)cc34)CC2)c1 [Example 40, (4-(3-(aminomethyl)phenyl)piperidin-1-yl)(6,7-dihydroxynaphthalen-1-yl)methanone]",,1.2,
"CCOC(=O)c1cnc(NC2CCC2=O)nc1C (stereo not drawn) [Example 47, Ethyl 4-methyl-2-((2-oxocyclobutyl)amino)pyrimidine-5-carboxylate]",,,"dimer-4 formation ([3]; 0.125 mg/mL, 20° C., pH 2.0 in 0.1% TFA): not observed; dimer-1 level [3, 4]: 2.35%; dimer-2 level [3, 4]: 2.3%; dimer-3 level [3, 4]: 5.2%; dimer-1 level [3, 5]: 0.06%; dimer-2 level [3, 5]: 0.06%; dimer-3 level [3, 5]: 0.11%; fraction of dimer-4 at equilibrium ([3]; 0.5 mg/mL, pH7.4 HEPES buffer with BSA): > 14%; Dimer 4 level ([3]; 0.5 mg/mL, pH7.4 HEPES buffer, in the absence of BSA): 4.73%; Dimer 4 level ([3]; 0.5 mg/mL, pH7.4 HEPES buffer, in the presence of BSA): 13.75%; dimer-4 level ([3]; pH7.4 HEPES buffer, 169 h): 1.82%; levels of dimers-1, -2, and -3 ([3]; pH7.4 HEPES buffer, over 169 h): below 0.01%; dimer-4 level ([3]; pH7.4 HEPES buffer, start): < 0.015%"
"NCc1cccc(C2CCN(C(=O)c3cccc(OCC(=O)N4C[C@@H](O)[C@@H](O)C4)c3)CC2)c1 [Example 50, 2-(3-(4-(3-(aminomethyl)phenyl)piperidine-1-carbonyl)phenoxy)-1-((3S,4R)-3,4-dihydroxypyrrolidin-1-yl)ethanone]",,7.5,
"O=C(NCCO)c1ccccc1O [N-(2-hydroxyethyl)salicylamide, N-(2-Hydroxyethyl)salicylamide]",lower affinities for boronic acids,,
"O[C@@H]1CCCC[C@@H]1O [cis-1,2-cyclohexanediol, cis-1,2-Cyclohexanediol]",lower affinities for boronic acids,,
"O=C([O-])C(=O)CO.[Li+] [hydroxypyruvic acid, lithium salt, Hydroxypyruvic acid, Lithium salt]",lower affinities for boronic acids,,
"CC(O)C(=O)O (stereo not drawn) [lactic acid (solution), Lactic acid]",lower affinities for boronic acids,,
"OCC(CO)(CO)CO [pentaerythritol, Pentaerythritol]",lower affinities for boronic acids,,
"O=C(O)C(=O)Cc1ccccc1 [phenylpyruvic acid, Phenylpyruvic acid]",lower affinities for boronic acids,,
"CC(C)(O)C(C)(C)O [pinacol, Pinacol]",lower affinities for boronic acids,,
"O=C(O)c1ccccc1O [salicylic acid, Salicylic acid]",lower affinities for boronic acids,,
"NC(CO)(CO)CO [tris base (TRIZMA Base), Tris Base (TRIZMA Base)]",lower affinities for boronic acids,,
